Experimental data as given in ChEMBL document CHEMBL3352672, “Lithocarpic acids O-S, five homo-cycloartane derivatives from the cupules of Lithocarpus polystachyus” (Bioorg Med Chem Lett, 2014).

Assays:
Format in all cases: cell-based
[1] = biological target: 11-beta-hydroxysteroid dehydrogenase 1 (Mus musculus) (UniProt P50172); assay: Inhibition of mouse 11beta-HSD1 in expressed in HEK293 cells microsomal fractions incubated with NADPH and [3H]-cortisone at 10 uM by scintillation proximity assay
[2] = biological target: 11-beta-hydroxysteroid dehydrogenase 1 (Mus musculus, UniProt P50172); assay: Inhibition of mouse 11beta-HSD1 in expressed in HEK293 cells microsomal fractions incubated with NADPH and [3H]-cortisone by scintillation proximity assay
[3] = biological target: T1, 11-beta-hydroxysteroid dehydrogenase 1 (Homo sapiens, UniProt P28845); assay: Inhibition of human 11beta-HSD1 in expressed in HEK293 cells microsomal fractions incubated with NADPH and [3H]-cortisone at 10 uM by scintillation proximity assay
Target sequence in this assay (P28845 whole entry, looked up): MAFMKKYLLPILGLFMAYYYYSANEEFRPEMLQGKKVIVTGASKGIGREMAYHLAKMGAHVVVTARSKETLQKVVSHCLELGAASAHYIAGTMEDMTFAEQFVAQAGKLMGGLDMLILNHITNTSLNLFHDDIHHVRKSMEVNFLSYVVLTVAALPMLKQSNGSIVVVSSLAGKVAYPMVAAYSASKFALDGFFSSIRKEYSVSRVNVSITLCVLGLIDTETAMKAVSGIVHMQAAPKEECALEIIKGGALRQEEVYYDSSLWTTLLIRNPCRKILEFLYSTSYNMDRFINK

[4] = biological target: T1, 11-beta-hydroxysteroid dehydrogenase 1; assay: Inhibition of human 11beta-HSD1 in expressed in HEK293 cells microsomal fractions incubated with NADPH and [3H]-cortisone by scintillation proximity assay
Target sequence in this assay (P28845 whole entry): as the sequence (P28845 whole entry, looked up) above

Chain of 11-beta-hydroxysteroid dehydrogenase 1 (Mus musculus) (P50172 whole entry, looked up): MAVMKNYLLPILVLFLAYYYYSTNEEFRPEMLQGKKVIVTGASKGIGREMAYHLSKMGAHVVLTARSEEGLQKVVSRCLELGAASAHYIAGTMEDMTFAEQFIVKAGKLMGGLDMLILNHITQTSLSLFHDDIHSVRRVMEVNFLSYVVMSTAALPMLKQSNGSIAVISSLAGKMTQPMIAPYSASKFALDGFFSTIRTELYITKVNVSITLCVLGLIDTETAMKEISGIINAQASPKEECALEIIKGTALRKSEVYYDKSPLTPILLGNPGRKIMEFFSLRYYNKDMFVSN
Chain of 11-beta-hydroxysteroid dehydrogenase 1 (Mus musculus, UniProt P50172) (P50172 whole entry): as the sequence (P50172 whole entry, looked up) above

| Compound | inhibition [1] [%] | IC50 [2] [nM] | inhibition [3] [%] | IC50 [4] [µM] |
| --- | --- | --- | --- | --- |
| C=C(CC[C@@H](COC(C)=O)[C@H]1CC[C@@]2(C)[C@@H]3CC[C@@H](C(=C)C)[C@@]4(CCC(=O)O)C[C@@]34CC[C@]12C)C(C)C | 73 | 2800 | > 60 | 4.1 |
| C=C(CC[C@@H](COC(C)=O)[C@H]1CC[C@@]2(C)[C@@H]3CC[C@@H](C(C)(C)O)[C@@]4(CCC(=O)O)C[C@@]34CC[C@]12C)C(C)C | – | – | – | 3.8 |
| C=C(CC[C@@H](CO)[C@H]1CC[C@@]2(C)[C@@H]3CC[C@@H](C(=C)C)[C@@]4(CCC(=O)O)C[C@@]34CC[C@]12C)C(C)C | 94 | 490 | > 80 | 1.4 |
| C=C(CC[C@@H](C(=O)O)[C@H]1CC[C@@]2(C)[C@@H]3CC[C@H]4C(C)(C)C(=O)CC[C@@]45C[C@@]35CC[C@]12C)C(C)C | > 60 | – | – | 2.3 |
